The text below walks through data of patent US20030232747A1, “Method of identifying a pharmaceutically active compound for the treatment of a condition caused by altered expression of the insulin receptor” (priority 2002, published 2003).

The nature of assay [1]: Organ weights after castration and testosterone replacement in young rats. The assay is classed as in vivo, rat. On the procedure: Pellets for testosterone-or placebo-implantation were received from Innovative Research of America, Sarasota, Fla., USA. To evaluate the effects of castration and testosterone replacement male wistar rats (3 months, n=21) were divided into three groups: Group 1, intact (shame operated, given a placebo-pellet by implantation under the dorsal skin, n=7), group 2, castrated (implantation of placebo-pellet, n=7) and group 3, castrated, but given a testosterone-implantate of 15 mg (n=7). 3 weeks after treatment rats were killed and penile tissue as well as blood samples were treated as described in example 1. The experimental study was conducted in accordance with the general federal law on the care and use of laboratory animals.
It was noted that the level of testosterone in the serum of young versus old rats were 4.436±1.1 and 0.57±0.17 ng/ml (mean±SD, n=4) respectively, pointing to a drop in the level of testosterone in circulation of aged animals. This is in agreement with Zirkins lab (Zirkin et al., Exp. Gerontol. 32:529-537 (1997); Zirkin and Chen, Biol. Reprod. 63:977-981 (2000)). In order to discern if the observed ageing related alteration in the expression of two splice variants of insulin receptor mRNA could be due to a declining androgen level in the ageing rats, we have performed orchiedectomy on young rats. One group of castrated rats received androgen releasing subcutanous implant. […] The effect of castration and andorgen-replacement of the insulin receptor mRNA expression in penile tissue of young rats is presented in FIG. 4a. […] Following castration, the appearance of the smaller splice variant was observed, the pattern resembling the old animals.

The test system of assay [2] is insulin receptor mRNA splice variants Ex11+/Ex11-. Put plainly: RT-PCR and densitometric analysis of insulin receptor mRNA splice variants in penile tissue after castration and testosterone replacement. It is filed as in vivo, rat. On the procedure:
Tissue samples (100-200 mg) were pulverized in liquid nitrogen. Total RNA was isolated using guanidium thocyanate, phenol-chloroform extraction (pecLab, Erlangen, Germany). The RNA was precipitated with isopropanol at −20° C. for 2 h, washed with 75% ethanol, dissolved in diethylpyrocarbonate water and quantified spectrometrically at 260 nm. The ratio of absorption of all preparations was between 1.8 and 2.0. To ensure that concentration was identical in each sample, the intensity of 28 sRNA was compared on an 1% agarose gelectrophoresis after ethidium bromide staining. Total RNA was stored at −80° C. until further use.
First strand cDNA synthesis was carried out using a commercially available kit (Gibco BRL). Briefly, 4 μg of total RNA was primed with 0,5 μg of oligo(dT)12-18 and incubated 10 min at 70° C. For each sample lx first strand puffer, 0,2M DTT, 10 mM dNTP's and 200U of Superscript II reverse transcriptase were added. Reverse transcription was performed at 42° C. for 50 min and stopped by heating for 15 min. at 70° C. The resulting cDNA templates were stored at −20° C. or directly used for PCR.
After a denaturation period of 3 min the PCR reaction was followed by 35 cycles of 95° C. for 60 sec., 60° C. for 60 sec. and 72° C. for 60 sec. PCR was performed with 6 μl cDNA, 10 mM of each dNTP, 5U Taq-Polymerase (Biotherm) and 50 pmol of both sense and antisense primers in PCR buffer. The final volume of each reaction was 50 μl. Reaction products (15 μl) were run on a 2.5% agarose gel. Primers used for PCR were: […]
Densitometric analysis of the insulin receptor mRNA splice variant levels was performed using the Image Quant 5.0 software.
For the proportion of the two insulin receptor variant mRNA levels, significance of the difference of the mean values was determined by unpaired student's t-test. The threshold for signigicance was set at p<0.05.
Pellets for testosterone-or placebo-implantation were received from Innovative Research of America, Sarasota, Fla., USA. […]

Setting [3] is: young (3 months) castrated male wistar rats, testosterone implant 15 mg, 3 weeks after treatment, n=7.
The mark [4] stands for this setting: young castrated rats with androgen supplementation (testosterone implant 15 mg), 3 weeks, FIG. 4b.

On to `C[C@]12CC[C@H]3[C@@H](CCC4=CC(=O)CC[C@@]43C)[C@@H]1CC[C@@H]2O` [testosterone], for which, in assay [1] (setting [3]), the “Penis weight in relation to body weight” value is listed as 78.55 ± 5.54 mg/100 g body weight and the “Prostate weight in relation to body weight” value was 92.37 ± 33.89 mg/100 g body weight. Besides, the “Effect on castration-induced reduction of penis and prostate weight (in words)” value in assay [1] (young castrated rats, testosterone replacement) is “induced a reversal of this effect in both organs”. Moreover, in assay [2] (setting [4]), the “Relative proportion of Ex11+ insulin receptor mRNA in penis” value worked out at 22.8% and the “Relative proportion of Ex11- insulin receptor mRNA in penis” value is listed as 77.2%. For the same compound, in assay [2] (young castrated rats with androgen supplementation, FIG. 4a), the “Appearance of the smaller insulin receptor splice variant (Ex11-) in penile tissue (in words)” value was “this isoform persisted”.
